Patent publication US20080107661A1, “MUC1 and ABL” (Dana-Farber Cancer Institute, Inc., priority 2006, published 2008)

Columns and labels:
[1] = system: c-Abl; experiment: Nuclear targeting of c-Abl in HCT116/vector, HCT116/MUC1 and mutant cells after CDDP; format: cell-based, human
Source text: Cell culture. Human HeLa cervical cancer cells, HCT116/vector (HCT116 colorectal carcinoma cells stably transfected with an empty vector), HCT116/MUC1 (HCT116 colorectal carcinoma cells stably transfected with an expression vector encoding a MUC1 polypeptide), HCT116/MUC1(Y46F) (HCT116 colorectal carcinoma cells stably transfected with an expression vector encoding a mutant MUC1 polypeptide containing an amino acid substitution at position 46 changing a tyrosine (Y) to phenylalanine (F)) colon cancer cells (Ren et al., (2002) J. Biol. Chem. 277: 17616-17622) and 293 cells were cultured in Dulbecco's modified medium with 10% heat-inactivated fetal bovine serum, 100 units/ml penicillin, 100 μg/ml streptomycin and 2 mM L-glutamine. Human ZR-75-1/vector (ZR-75-1 breast cancer cells stably transfected with an empty vector) and ZR-75-1/MUC1siRNA (ZR-75-1 breast cancer cells stably transfected with an expression vector encoding an siRNA specific for MUC1) breast cancer cells (Ren et al., (2004) Cancer Cell 5:163-175) were grown in RPMI1640 medium containing 10% heat-inactivated fetal bovine serum and antibiotics. Cells were treated with 1 μM adriamycin (ADR; Calbiochem), 100 μM cisplatin (CDDP; Sigma) or 10 μM STI571 (Gleevec; Novartis, Basel, Switzerland).
Subcellular fractionation. Nuclear fractions were prepared as described (Kharbanda et al., (1996) Cancer Res. 56:3617-3621). Cytosolic fractions were prepared as described (Hill et al., (2004) EMBO J. 23:2134-2145). Cell membrane fractions were prepared with the Plasma Membrane Extraction Kit (BioVision Research Products, Mountain View, Calif.). Mitochondria were purified as described (Ren et al., (2004) Cancer Cell 5:163-175; Ren et al., (2006) Oncogene 25:20-31).
(§1) Immunoprecipitations and immunoblot analysis. Cell lysates were prepared as described (Kharbanda et al., (1995) Nature 376:785-788); Yoshida et al., (2005) Nat. Cell Biol. 7:278-285). Soluble proteins were incubated with anti-MUC1-N (Kufe et al., (1984) Hybridoma 3:223-232), anti-MUC1-C (Ab5; Neomarker, Montreal, Quebec), anti-Flag (Sigma, St. Louis, Mo.), anti-c-Abl (Ab3; Oncogene, San Diego, Calif.) or anti-14-3-3 (Abcam Inc., Cambridge, Mass.) antibodies for 2 hours at 4° C., followed by precipitation with protein G-Sepharose beads for 1 hour. […] Intensity of the signals was determined by densitometric scanning. Statistical significance was determined by the Student's t-test.

[2] = system: MUC1-C; experiment: Nuclear MUC1-C levels in HCT116/MUC1 cells after CDDP (immunoblot, densitometric scanning); format: cell-based, human; conditions: CDDP, 0, 1, 2 and 4 hours, over untreated cells
Experimental: as §1, with “Subcellular fractionation. Nuclear fractions were prepared as described (Kharbanda et al., (1996) Cancer Res. 56:3617-3621). Cytosolic fractions were prepared as described (Hill et al., (2004) EMBO J. 23:2134-2145). Cell membrane fractions were prepared with the Plasma Membrane Extraction Kit (BioVision Research Products, Mountain View, Calif.). Mitochondria were purified as described (Ren et al., (2004) Cancer Cell 5:163-175; Ren et al., (2006) Oncogene 25:20-31). Immunoprecipitations” for “Immunoprecipitations”

Q: Which “CDDP-induced targeting of cytosolic c-Abl to the nucleus” value ([1]; HCT116/MUC1(Y46F) cells, CDDP, 0, 2 or 4 hours) does the source give for `[NH2][Pt]([NH2])([Cl])[Cl]` [CDDP, cisplatin] here?
A: Its value is “blocked CDDP-induced targeting of cytosolic c-Abl to the nucleus”.

Q: What about the “effect of MUC1(Y60F) on CDDP-induced targeting of c-Abl to the nucleus” value ([1]; HCT116/MUC1(Y60F) cells, CDDP, 2 and 4 hours) of the same compound?
A: The value was “little if any effect”.

Q: And the “nuclear targeting of c-Abl” value ([1]; HCT116/MUC1 cells, CDDP, 2 and 4 hours)?
A: Its value is “blocked nuclear targeting of c-Abl”.

Q: What about the “nuclear targeting of c-Abl” value ([1]; HCT116/vector cells, CDDP, 2 and 4 hours) of the same compound?
A: The value was “c-Abl was targeted to the nucleus”.

Q: And the “increase in nuclear MUC1-C levels” value [2]?
A: The value was “two-fold”.
